In general, IC50 refers to the concentration needed to halve the response being measured. The AC50 is the concentration at which the activity in the assay is half-maximal. Broadly, the EC50 is the concentration giving half of the maximal effect. For orientation: CC50 means the concentration at which the toxic effect on the cells reaches its halfway point.

Activity calls are given as the source filed them.

The record followed here is ChEMBL document CHEMBL1201862, “PubChem BioAssay data set” (2004).

The nature of assay [1]: Luminescent dose response cell-based high throughput screening assay for inhibitors of the Janus kinase 2 mutant JAK2V617F. [Related pubchem assays: 1446 (Primary screen.), 1521 (Confirmation assay.), 1486 (Counter screen.)]. The assay is classed as functional. On the technique in general: Counterscreens check selectivity or assay interference.
The target in assay [2] is T1, Microphthalmia-associated transcription factor (Homo sapiens, UniProt O75030).
T1 sequence (O75030 whole entry): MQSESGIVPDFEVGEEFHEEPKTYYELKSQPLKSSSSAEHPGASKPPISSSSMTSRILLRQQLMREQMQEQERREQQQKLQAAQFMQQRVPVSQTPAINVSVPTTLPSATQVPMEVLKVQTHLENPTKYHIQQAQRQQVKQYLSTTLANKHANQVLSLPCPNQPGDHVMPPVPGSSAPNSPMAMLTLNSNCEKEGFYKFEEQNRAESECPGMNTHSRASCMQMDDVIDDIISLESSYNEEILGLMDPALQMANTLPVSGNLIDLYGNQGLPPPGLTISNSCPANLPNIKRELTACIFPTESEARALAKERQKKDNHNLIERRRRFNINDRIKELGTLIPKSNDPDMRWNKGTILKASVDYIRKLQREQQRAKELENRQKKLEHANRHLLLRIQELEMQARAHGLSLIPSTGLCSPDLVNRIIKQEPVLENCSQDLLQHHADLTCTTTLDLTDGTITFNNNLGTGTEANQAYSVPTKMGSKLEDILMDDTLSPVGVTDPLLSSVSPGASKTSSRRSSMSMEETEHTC
Briefly: TRPM1 promoter luciferase signal decrease, dose response, MITF inhibitor project, cell-based, SK-MEL-5, cherry-picked, set 3 (AID 493073).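 Note: SK-MEL-5 melanoma cells with luciferase driven by the MITF target TRPM1 promoter.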 The assay is classed as functional.

In a further assay the target is Cytochrome P450 2C9 (Homo sapiens, UniProt P11712).
Cytochrome P450 2C9, sequence (P11712 whole entry): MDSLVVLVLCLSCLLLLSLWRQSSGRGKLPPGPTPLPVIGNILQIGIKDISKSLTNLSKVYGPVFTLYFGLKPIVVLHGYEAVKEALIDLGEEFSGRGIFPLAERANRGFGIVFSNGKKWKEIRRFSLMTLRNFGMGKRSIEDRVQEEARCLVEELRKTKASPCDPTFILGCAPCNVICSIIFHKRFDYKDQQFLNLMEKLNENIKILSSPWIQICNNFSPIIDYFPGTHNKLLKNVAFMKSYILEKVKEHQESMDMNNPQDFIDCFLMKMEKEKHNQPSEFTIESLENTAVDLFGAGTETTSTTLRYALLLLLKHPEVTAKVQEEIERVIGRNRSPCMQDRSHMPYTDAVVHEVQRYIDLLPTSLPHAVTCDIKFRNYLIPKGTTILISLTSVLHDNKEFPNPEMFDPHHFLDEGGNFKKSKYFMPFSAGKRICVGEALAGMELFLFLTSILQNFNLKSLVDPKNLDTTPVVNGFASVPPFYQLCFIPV
Assay [3] concerns the target Neurotensin receptor type 1 (Homo sapiens, UniProt P30989). The assay is classed as functional.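 Note: Image-based confirmatory dose-response assay measuring agonist activity at NTR1; NTR1-expressing U2OS osteosarcoma cells imaged for beta-arrestin GFP spot formation; agonist potency where compounds increase beta-arrestin recruitment.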
Assay [4] addresses Eukaryotic translation initiation factor 4E (Mus musculus, UniProt P63073). Briefly: eIF4E–eIF4G protein interaction inhibitors, dose response, biochemical, TR-FRET (AID 855).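 Note: potency for disrupting eIF4E binding to eIF4GI seen as loss of FRET.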 The assay is classed as functional. Background: In TR-FRET formats the signal depends on donor and acceptor labels being close together.
A further assay concerns the target T2, ORF 73 (Human herpesvirus 8, UniProt O40947).
T2 sequence (O40947 whole entry): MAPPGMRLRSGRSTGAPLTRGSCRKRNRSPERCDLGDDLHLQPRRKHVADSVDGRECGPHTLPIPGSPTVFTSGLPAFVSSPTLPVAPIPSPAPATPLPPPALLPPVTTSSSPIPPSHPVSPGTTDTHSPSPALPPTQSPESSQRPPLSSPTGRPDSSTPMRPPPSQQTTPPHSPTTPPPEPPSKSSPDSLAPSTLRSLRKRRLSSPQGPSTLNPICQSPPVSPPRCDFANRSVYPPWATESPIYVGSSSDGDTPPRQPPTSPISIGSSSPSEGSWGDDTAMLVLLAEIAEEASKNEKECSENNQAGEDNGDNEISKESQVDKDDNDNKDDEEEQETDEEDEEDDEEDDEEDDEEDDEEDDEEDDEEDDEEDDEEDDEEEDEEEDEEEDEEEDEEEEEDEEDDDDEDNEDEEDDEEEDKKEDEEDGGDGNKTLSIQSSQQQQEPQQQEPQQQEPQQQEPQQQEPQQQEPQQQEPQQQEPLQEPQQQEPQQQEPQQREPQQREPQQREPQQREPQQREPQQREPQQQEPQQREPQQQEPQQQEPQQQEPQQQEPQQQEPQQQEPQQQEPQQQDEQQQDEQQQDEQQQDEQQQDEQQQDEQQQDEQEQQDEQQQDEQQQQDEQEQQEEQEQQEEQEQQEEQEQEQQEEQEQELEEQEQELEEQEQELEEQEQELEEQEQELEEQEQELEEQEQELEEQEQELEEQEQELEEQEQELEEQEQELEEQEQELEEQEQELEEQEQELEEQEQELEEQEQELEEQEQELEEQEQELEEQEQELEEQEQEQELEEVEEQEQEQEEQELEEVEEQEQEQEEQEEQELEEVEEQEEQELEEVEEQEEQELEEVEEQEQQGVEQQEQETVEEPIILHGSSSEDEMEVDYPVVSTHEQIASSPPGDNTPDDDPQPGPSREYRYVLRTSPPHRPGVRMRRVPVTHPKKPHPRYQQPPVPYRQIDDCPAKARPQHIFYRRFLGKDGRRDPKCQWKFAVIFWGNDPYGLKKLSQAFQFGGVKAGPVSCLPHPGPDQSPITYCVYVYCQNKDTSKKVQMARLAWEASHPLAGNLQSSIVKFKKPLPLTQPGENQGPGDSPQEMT
Briefly: inhibitors of C-LANA binding to LBS DNA, dose response, biochemical, fluorescence polarization, cherry-picked samples (AID 504725).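 Note: fluorescence polarization of a labeled DNA duplex reporting LANA DNA binding; potency is for inhibitors that block LANA binding to the DNA.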 On the set-up: species or system Human gammaherpesvirus 8. On the technique in general: Polarisation of emitted light reports the rotation of a fluorescent probe.

Another assay concerns HeLa. Briefly: HeLa cell cytotoxicity, dose response, cytotoxicity control, 24 h, cherry-picked samples (AID 504726).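 Note: potency for cytotoxicity as loss of luminescence signal.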 The assay is classed as functional, cell-based. The settings on record: Homo sapiens.
For assay [5], the target named is Cystic fibrosis transmembrane conductance regulator/Golgi-associated PDZ and coiled-coil motif-containing protein (Homo sapiens, UniProt P13569+Q9HD26). Briefly: CAL PDZ peptide-binding inhibitors, dose response, biochemical, fluorescence polarization, Cerulean-tagged CAL PDZ, cherry-picks (AID 504773).
Cystic fibrosis transmembrane conductance regulator/Golgi-associated PDZ and coiled-coil motif-containing protein, sequence (P13569 whole entry, other chains not shown): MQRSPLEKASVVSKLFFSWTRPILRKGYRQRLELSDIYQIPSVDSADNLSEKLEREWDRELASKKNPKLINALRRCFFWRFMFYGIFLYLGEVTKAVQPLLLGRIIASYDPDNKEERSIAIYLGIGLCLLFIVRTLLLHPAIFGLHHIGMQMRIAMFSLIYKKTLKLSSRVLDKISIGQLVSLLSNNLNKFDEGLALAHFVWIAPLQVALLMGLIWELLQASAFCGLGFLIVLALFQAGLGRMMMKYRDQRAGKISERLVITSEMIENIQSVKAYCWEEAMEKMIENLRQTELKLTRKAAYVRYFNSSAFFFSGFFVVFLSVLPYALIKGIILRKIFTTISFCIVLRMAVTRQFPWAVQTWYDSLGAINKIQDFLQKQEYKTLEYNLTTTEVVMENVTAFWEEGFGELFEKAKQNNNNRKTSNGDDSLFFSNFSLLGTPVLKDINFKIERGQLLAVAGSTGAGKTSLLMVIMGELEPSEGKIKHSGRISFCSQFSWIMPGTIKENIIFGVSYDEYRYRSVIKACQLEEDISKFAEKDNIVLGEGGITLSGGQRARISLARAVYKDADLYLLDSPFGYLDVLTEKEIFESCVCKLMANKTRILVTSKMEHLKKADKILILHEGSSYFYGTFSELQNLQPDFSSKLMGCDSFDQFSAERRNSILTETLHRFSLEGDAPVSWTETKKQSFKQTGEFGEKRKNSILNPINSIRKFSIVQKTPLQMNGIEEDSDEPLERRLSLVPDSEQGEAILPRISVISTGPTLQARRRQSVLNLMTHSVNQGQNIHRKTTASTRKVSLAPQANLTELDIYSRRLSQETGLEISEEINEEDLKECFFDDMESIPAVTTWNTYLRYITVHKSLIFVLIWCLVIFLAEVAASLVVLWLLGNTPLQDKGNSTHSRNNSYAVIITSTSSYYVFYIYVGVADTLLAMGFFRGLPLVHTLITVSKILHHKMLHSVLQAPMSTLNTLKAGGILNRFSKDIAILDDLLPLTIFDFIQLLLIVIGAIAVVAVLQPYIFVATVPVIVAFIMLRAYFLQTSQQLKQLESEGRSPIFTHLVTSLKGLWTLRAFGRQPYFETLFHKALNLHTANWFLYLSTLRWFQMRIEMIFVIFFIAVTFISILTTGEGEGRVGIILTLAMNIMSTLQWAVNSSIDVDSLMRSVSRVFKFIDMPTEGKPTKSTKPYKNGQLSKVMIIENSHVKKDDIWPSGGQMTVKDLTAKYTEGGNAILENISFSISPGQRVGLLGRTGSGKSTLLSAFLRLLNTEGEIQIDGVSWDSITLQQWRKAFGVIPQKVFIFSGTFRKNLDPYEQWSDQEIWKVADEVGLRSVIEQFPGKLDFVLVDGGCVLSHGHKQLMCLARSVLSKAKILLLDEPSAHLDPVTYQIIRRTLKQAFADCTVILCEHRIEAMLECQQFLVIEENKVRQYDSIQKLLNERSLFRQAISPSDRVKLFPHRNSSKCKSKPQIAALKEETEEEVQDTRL
The next assay concerns the target Nonstructural protein 1 (Influenza A virus, UniProt Q194T2). The assay is classed as functional, Influenza A virus (A/California/07/2009(H1N1)).
Assay [6] is described as follows: Cytotoxicity screening for potential Inhibitors of Bacterial Capsule Biogenesis. [Related pubchem assays (depositor defined):AID488970]. The assay is classed as functional.
For a further assay, the target named is T3, Protein skinhead-1 (Caenorhabditis elegans, UniProt P34707).
T3 sequence (P34707 whole entry): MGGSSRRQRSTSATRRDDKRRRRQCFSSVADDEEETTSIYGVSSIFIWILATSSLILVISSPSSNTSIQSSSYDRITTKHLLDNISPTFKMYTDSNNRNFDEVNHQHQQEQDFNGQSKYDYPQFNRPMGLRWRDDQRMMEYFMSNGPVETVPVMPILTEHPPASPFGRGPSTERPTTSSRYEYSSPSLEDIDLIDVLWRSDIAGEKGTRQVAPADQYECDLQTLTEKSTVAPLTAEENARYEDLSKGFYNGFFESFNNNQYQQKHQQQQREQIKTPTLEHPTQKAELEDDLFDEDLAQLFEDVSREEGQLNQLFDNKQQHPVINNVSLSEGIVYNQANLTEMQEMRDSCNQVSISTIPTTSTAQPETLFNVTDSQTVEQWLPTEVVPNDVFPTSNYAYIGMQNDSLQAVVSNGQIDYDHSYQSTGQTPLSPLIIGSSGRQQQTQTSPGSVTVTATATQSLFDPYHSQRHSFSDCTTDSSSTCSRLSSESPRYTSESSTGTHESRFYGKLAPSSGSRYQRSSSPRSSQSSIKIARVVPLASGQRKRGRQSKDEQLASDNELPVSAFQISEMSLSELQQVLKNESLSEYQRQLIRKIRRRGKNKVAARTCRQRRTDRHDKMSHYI
The assay is classed as functional.

The target in the next assay is T4, Bcl-2-related protein A1 (Mus musculus, UniProt Q07440).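 Note: confirmatory dose–response counterscreen on Bfl-1, used to check hits from a UBC13 polyubiquitin inhibitor campaign.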
T4 sequence (Q07440 whole entry): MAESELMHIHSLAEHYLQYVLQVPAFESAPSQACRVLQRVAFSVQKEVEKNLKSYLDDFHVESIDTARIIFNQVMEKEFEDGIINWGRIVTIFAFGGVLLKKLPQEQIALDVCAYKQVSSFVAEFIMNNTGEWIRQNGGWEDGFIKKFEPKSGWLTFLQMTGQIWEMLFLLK
The assay is classed as functional.

For assay [7], the target named is T5, Ubiquitin-conjugating enzyme E2 N (Homo sapiens, UniProt P61088).
T5 sequence (P61088 whole entry): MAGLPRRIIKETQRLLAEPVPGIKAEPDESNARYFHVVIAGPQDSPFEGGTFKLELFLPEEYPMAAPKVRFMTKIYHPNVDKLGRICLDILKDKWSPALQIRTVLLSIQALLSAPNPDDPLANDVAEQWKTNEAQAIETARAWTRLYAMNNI
The assay is classed as functional.

In assay [8] the target is T5, Ubiquitin-conjugating enzyme E2 N. The assay is classed as functional. This is another data set of the same source.
For a further assay, the target named is Paired box protein Pax-8 (Homo sapiens, UniProt Q06710). Briefly: inhibitors of PAX8-driven TPO luciferase reporter, dose response, RMG-I cells, cherry-pick (AID 687027).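 Note: luciferase reporter driven by Pax8 target thyroperoxidase promoter measured by SteadyGlo luminescence.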 The assay is classed as functional, cell-based.
Paired box protein Pax-8, sequence (Q06710 whole entry): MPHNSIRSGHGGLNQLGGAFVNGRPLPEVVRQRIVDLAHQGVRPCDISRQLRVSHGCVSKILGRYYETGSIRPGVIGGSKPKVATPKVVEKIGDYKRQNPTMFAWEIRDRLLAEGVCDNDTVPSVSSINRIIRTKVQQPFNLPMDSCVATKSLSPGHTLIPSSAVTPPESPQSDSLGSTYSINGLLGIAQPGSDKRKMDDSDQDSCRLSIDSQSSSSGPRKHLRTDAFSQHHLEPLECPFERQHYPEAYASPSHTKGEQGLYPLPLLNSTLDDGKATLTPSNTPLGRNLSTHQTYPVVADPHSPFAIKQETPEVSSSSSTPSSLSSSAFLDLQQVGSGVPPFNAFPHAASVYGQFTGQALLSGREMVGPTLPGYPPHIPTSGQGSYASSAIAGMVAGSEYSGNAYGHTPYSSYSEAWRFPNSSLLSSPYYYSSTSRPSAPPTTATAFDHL

Eukaryotic translation initiation factor 4E, sequence (P63073 whole entry): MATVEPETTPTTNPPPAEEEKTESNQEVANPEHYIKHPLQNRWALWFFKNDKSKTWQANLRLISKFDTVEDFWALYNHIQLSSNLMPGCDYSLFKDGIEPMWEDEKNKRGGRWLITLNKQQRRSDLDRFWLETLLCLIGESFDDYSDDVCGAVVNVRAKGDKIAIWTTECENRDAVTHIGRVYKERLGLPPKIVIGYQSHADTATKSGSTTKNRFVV
Nonstructural protein 1, sequence (Q194T2 whole entry): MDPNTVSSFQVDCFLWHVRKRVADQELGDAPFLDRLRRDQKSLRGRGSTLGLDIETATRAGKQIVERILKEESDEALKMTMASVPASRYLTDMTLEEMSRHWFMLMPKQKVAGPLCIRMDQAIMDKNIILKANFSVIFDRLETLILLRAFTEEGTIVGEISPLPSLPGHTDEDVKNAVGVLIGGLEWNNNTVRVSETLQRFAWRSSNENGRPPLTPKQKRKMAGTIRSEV
Neurotensin receptor type 1, sequence (P30989 whole entry): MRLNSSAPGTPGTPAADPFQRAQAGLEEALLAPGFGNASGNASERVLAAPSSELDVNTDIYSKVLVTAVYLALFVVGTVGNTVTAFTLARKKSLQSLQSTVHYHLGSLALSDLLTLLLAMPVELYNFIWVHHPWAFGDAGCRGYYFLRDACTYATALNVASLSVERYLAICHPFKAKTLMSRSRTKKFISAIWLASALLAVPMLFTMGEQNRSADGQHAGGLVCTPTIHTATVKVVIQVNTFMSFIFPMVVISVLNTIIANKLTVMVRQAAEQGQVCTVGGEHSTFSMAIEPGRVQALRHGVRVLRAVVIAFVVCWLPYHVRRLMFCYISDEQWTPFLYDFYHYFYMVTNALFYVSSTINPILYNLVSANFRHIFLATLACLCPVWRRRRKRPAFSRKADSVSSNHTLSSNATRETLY

For the molecule `C/C(=C\c1ccc(N(C)C)cc1)[N+](=O)[O-]`, the IC50 in assay [1] is 0.653 µM (active). Further, the AC50 is 13.1 µM (active) in [2] and 31.6 µM (inconclusive) at Cytochrome P450 2C9. Also, the EC50 in [3] was 4.26 µM (active).

With `COc1ccc(OC)c(-c2c3cc(O)c(=O)cc-3oc3cc(O)c(O)cc23)c1`, the IC50 in [4] was 15.7 µM (active); on Nonstructural protein 1, 20.3 µM (active). Besides, the AC50 at ORF 73 was 1.56 µM (active); in the assay with HeLa, 135 µM (active); in assay [5] it was 13.3 µM (active).

Take `COc1ccc2nc(NC(=O)c3ccc(Br)s3)sc2c1`: the 50% cytotoxic concentration (CC50) in assay [6] was > 100 µM (active). In addition, on Protein skinhead-1, the IC50 is > 100 µM (inactive).

Take `O=C(Nc1cccc(C2=NCCN2)c1)Nc1cccc(C2=NCCN2)c1` [IMIDOCARB DIPROPIONATE]: the values for the IC50 (at Bcl-2-related protein A1; in assay [7]; in assay [8]) were > 20 µM (inactive), 10.6 µM (active) and 13.2 µM (active), respectively. Moreover, the CC50 in assay [6] is > 100 µM (active). Besides, the AC50 at Paired box protein Pax-8 is 0.879 µM (active).
